Some test systems named below: OVCAR-8 ovarian; M14 melanoma; SR leukemia; EKVX NSCLC; OVCAR-3 ovarian; MDA-MB-231 breast; HOP-92 NSCLC; SNB-19 CNS; RPMI-8226 leukemia; OVCAR-5 ovarian; A549 NSCLC.
Assay in all cases: inhibition of tumour cell growth, NCI panel, 48 h

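Results reflect a 48-hour exposure of cells in 96-well plates to compound at five concentrations. TGI denotes the concentration required for complete inhibition of growth.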 Some results are limits rather than exact numbers.

With `CCCOc1ccc(/C=C/C2=[N+](CCO)CCO2)cc1`, the TGI in the test with OVCAR-8 ovarian, in the test with M14 melanoma, in the test with SR leukemia, in the test with EKVX NSCLC, with OVCAR-3 ovarian and in the test with MDA-MB-231 breast was over 100 µM throughout. Besides, the TGI in the test with HOP-92 NSCLC, in the test on SNB-19 CNS, in the test on RPMI-8226 leukemia, in the test on OVCAR-5 ovarian and with A549 NSCLC was over 100 µM each time.

For `COC(=O)C1=C(C(=O)OC)C(C(=O)c2ccccc2)N2N=C(c3ccc(Cl)cc3)C=CC12` (configuration not stated), the TGI with OVCAR-8 ovarian, with M14 melanoma, in the test on SR leukemia, with EKVX NSCLC, with OVCAR-3 ovarian and in the test with MDA-MB-231 breast was over 100 µM throughout. Besides, the TGI in the test on HOP-92 NSCLC is over 100 µM; with SNB-19 CNS, over 100 µM; in the test with RPMI-8226 leukemia, 80.1 µM; in the test on OVCAR-5 ovarian, over 100 µM; with A549 NSCLC, over 100 µM.

Source of the values: PubChem BioAssay (NCI).
